# Data: patent publication US4914086A, “Method for treating African human and veterinary trypanosomiases” (priority 1987, dated 1990)
# “Also recorded” adds a separate entry of the source.
# Tests used:
# VA-13 human cells = conditions: cited from earlier work
# mammalian cells = conditions: cited from earlier work
# in vivo = assay: in vivo
# Protocol: Swiss-Webster (25-30 g) mice were used throughout. In the EATRO 110 model, groups of 100 mice were infected (10^5 trypanosomes/mouse) and the infection was allowed to develop 24 hours before commencing therapy. Animals were divided into groups of 5 before treatment. Cured animals survived >30 days beyond deaths of controls. All compounds were administered by i.p. injection.
# mouse L cells [1] = conditions: cited from earlier work
# [2] = tested on: Trypanosoma brucei gambiense; conditions: bone marrow tissue culture system; cited from earlier work
# Leishmania spp = conditions: previous studies; cited from earlier work
# T. B. gambiense = conditions: cited from earlier work
# Pneumocystis Carinii = conditions: tissue culture; cited from earlier work
# African trypanosomes = conditions: previous studies; cited from earlier work
# [3] = tested on: bloodstream trypomastigotes; conditions: in culture; cited from earlier work
# T. b. brucei EATRO 110 = assay: Delayed administration of 9-DINO on the EATRO 110 model (Table 2); type: in vivo, Trypanosoma brucei brucei (in Swiss-Webster mice); conditions: for # Cured/Total / % Cured: 3 days
# Description: T. b. brucei EATRO 110 isolate was maintained as described (Bacchi, C. J., H. C. Nathan, S. H. Hutner, P. P. McCann and A. Sjoerdsma; Polyamine metabolism: a potential chemotherapeutic target in trypanosomes. Science 210: 332-334, 1980). It produces an acute, rapidly fatal parasitemia which is lethal to mice 3-5 days after inoculation. Two T. B. brucei strains, TREU 667 and LUMP 1001 developed by Jennings and coworkers (Jennings, F. W., D. D. Whitelaw and G. M. Urquhart; The relationship between duration of infection with Trypanosoma brucei in mice and the efficacy of chemotherapy. Parasitology 75: 143-153, 1977/Jennings, F. W. and G. D. Gray; Relapsed parasitemia following chemotherapy of chronic T. brucei infections in mice and its relation to cerebral trypanosomes; Contr. Microbiol. Immunol. 7 147-154, 1983) were used as CNS models. Both produce infections which are refractory to Berenil® (diminazene aceturate) and develop within 21 days after inoculation. They are not usually fatal until >40 days after inoculation. LUMP 1001 causes a more virulent CNS infection than TREU 667, and is regarded as more difficult to cure (Jennings, F. W. and G. D. Gray. Relapsed parasitemia following chemotherapy of chronic T. brucei infections in mice and its relation to cerebral trypanosomes. Contr. Microbiol. Immunol. 7 147-154, 1983).
# Swiss-Webster (25-30 g) mice were used throughout. […] Animals were divided into groups of 5 before treatment. Cured animals survived >30 days beyond deaths of controls. All compounds were administered by i.p. injection.
# T. brucei subsp. = conditions: cited from earlier work
# mouse L cells [4] = conditions: cited from earlier work; remark: listed apart in the source
# T. cruzi = conditions: previous studies; cited from earlier work
# T. b. brucei = conditions: cited from earlier work
# T. vivax = conditions: multiple daily doses; Dube et al.; cited from earlier work
# T. congolense = conditions: cited from earlier work
# [5] = treatment begun 48 h post infection, 25 mg/kg i.p. daily
# [6] = treatment begun 48 h post infection, 50 mg/kg i.p. daily
# [7] = treatment begun 48 h post infection, 100 mg/kg i.p. daily
# [8] = treatment begun 72 h post infection, 25 mg/kg i.p. daily, only fully treated animals
# [9] = treatment begun 72 h post infection, 50 mg/kg i.p. daily, only fully treated animals
# [10] = treatment begun 72 h post infection, 100 mg/kg i.p. daily, only fully treated animals
# [11] = multiple daily doses, Dube et al.
compound,measurement,setting,value
"O=c1[nH]cnc2c([C@@H]3O[C@H](CO)[C@@H](O)[C@H]3O)c[nH]c12 [9-DINO, 7-beta-D-ribofuranosyl-4-oxo-3H, 5H-pyrrolo (3,2-d) pyrimidine]",metabolism to adenine nucleotide analogs in words,VA-13 human cells,not metabolized to adenine nucleotide analogs
same,cleavage into ribose and purine analog moieties,mammalian cells,cannot be cleaved into ribose and purine analog moieties
same,dose at which toxicity appeared,"in vivo; mouse, in vivo",400 mg/kg
same,toxicity in words,in vivo; prolonged (i.e. 1 week) dose regimens,no evidence of toxicity
same,metabolism in words,mouse L cells [1],nor metabolized to adenosine nucleotide analogues by these cells; also recorded: not metabolized to adenine nucleotide analogs
same,activity in words,[2],active at very low concentrations
same,activity in words,Leishmania spp,"more active than allopurinol, thipurinol, and their respective nucleosides"
same,metabolism in words,T. B. gambiense,metabolized to 9-deaza-ATP
same,activity in words,Pneumocystis Carinii,active
same,activity in words,African trypanosomes,"more active than allopurinol, thipurinol, and their respective nucleosides"
same,metabolism in words,[3],converted to toxic adenosine nucleotide analogues
same,efficacy in words,"T. b. brucei EATRO 110; treatment at 48 h post infection, 25 to 100 mg/kg",completely effective
same,# Cured/Total,T. b. brucei EATRO 110; [5],5/5
same,% Cured,T. b. brucei EATRO 110; [5],100%
same,# Cured/Total,T. b. brucei EATRO 110; [6],5/5
same,% Cured,T. b. brucei EATRO 110; [6],100%
same,# Cured/Total,T. b. brucei EATRO 110; [7],5/5
same,% Cured,T. b. brucei EATRO 110; [7],100%
same,# Cured/Total,T. b. brucei EATRO 110; [8],6/10
same,% Cured,T. b. brucei EATRO 110; [8],60%
same,# Cured/Total,T. b. brucei EATRO 110; [9],6/10
same,% Cured,T. b. brucei EATRO 110; [9],60%
same,# Cured/Total,T. b. brucei EATRO 110; [10],6/9
same,% Cured,T. b. brucei EATRO 110; [10],67%
same,activity in words,T. b. brucei EATRO 110; treatment delayed 48 or 72 h post infection,active
same,metabolism in words,T. brucei subsp.,can be aminated by T. brucei subsp. and converted to analogs of ATP
same,toxicity in words,mouse L cells [4],neither toxic for mouse L cells
same,activity in words,T. cruzi,"more active than allopurinol, thipurinol, and their respective nucleosides"
"Nc1ncnc2c1ncn2[C@@H]1O[C@H](C[C@@H](N)CC[C@H](N)C(=O)O)[C@@H](O)[C@H]1O [Sinefungin, 6,9-Diamino-1-(6-amino-9H-purin-9-yl)-1,5,6,7,8,9-hexadeoxy-beta-D-ribo-decofuranuronic acid]",% curable,"T. b. brucei; 3×5 mg/kg dose, 8 hour intervals",100%
same,cure in words,T. b. brucei; [11],cured
same,cure in words,T. vivax,cured
same,total dose to which infection responded,T. congolense; 9 injections 2 h apart,0.45 mg
same,cure in words,T. congolense; [11],cured
